Data: ChEMBL document CHEMBL1145395, “De novo design of selective antibiotic peptides by incorporation of unnatural amino acids” (J Med Chem, 2007)
Values after ≈ are worked out from the molar mass of the structure shown. Active and inactive are the calls of the source. The calls are words filed in the database; no cut-off is given here. Non-standard residues stand in square brackets, D forms with d. Residues, ends and D or L forms follow the SMILES beside them. ξ: configuration not given here. Phe(4-NO2) = N[C@@H](Cc1ccc([N+](=O)[O-])cc1)C(=O)O; Pro(3ξ,4ξ-(CH2)4) = O=C(O)[C@H]1NCC2CCCCC21; Oic = O=C(O)[C@@H]1C[C@@H]2CCCC[C@@H]2N1; Pro(3,4-benzo) = O=C(O)[C@H]1NCc2ccccc21; Tic = O=C(O)[C@@H]1Cc2ccccc2CN1; βAla = NCCC(=O)O

Tests used:
[1] = Toxicity to mouse RBC assessed as hemolytic activity at 100 uM; assay type: cell-based, Erythrocyte; conditions: red blood cells, read-out: Activity
[2] = system: Staphylococcus aureus; experiment: Antibacterial activity against methicillin/gentamicin/tetracycline resistant Staphylococcus aureus ATCC 33592; assay type: functional
[3] = system: Mycobacterium; experiment: Antibacterial activity against Mycobacterium ranae ATCC 110; assay type: functional
[4] = system: Salmonella typhimurium; experiment: Antibacterial activity against Salmonella Typhimurium ATCC 13311; assay type: functional, Salmonella enterica subsp. enterica serovar Typhimurium; conditions: Salmonella enterica

| SMILES | hemolysis at 100 µM [1] | MIC [2] | MIC [3] | MIC [4] | Activity [3] |
| --- | --- | --- | --- | --- | --- |
| CSCC[C@H](NC(=O)[C@H](CC(C)C)NC(=O)[C@H](CCC(=O)O)NC(=O)[C@@H]1C[C@@H]2CCCC[C@@H]2N1C(=O)[C@@H]1Cc2ccccc2CN1C(=O)[C@H](Cc1ccccc1)NC(=O)CCNC(=O)[C@@H]1C[C@@H]2CCCC[C@@H]2N1C(=O)[C@@H]1Cc2ccccc2CN1C(=O)[C@H](CCCCN)NC(=O)CCNC(=O)[C@@H]1C[C@@H]2CCCC[C@@H]2N1C(=O)[C@@H]1Cc2ccccc2CN1C(=O)[C@H](Cc1ccccc1)NC(=O)CCNC(=O)[C@@H]1C[C@@H]2CCCC[C@@H]2N1C(=O)[C@@H]1Cc2ccccc2CN1C(=O)[C@H](CCCCN)NC(=O)CCNC(=O)[C@@H]1C[C@@H]2CCCC[C@@H]2N1C(=O)[C@@H]1Cc2ccccc2CN1C(=O)[C@H](CC(C)C)NC(=O)CNC(=O)[C@H](CCCCN)NC(=O)CN)C(=O)N[C@@H](CC(N)=O)C(=O)N[C@@H](CO)C(N)=O (H-GKGL[Tic][Oic][βAla]K[Tic][Oic][βAla]F[Tic][Oic][βAla]K[Tic][Oic][βAla]F[Tic][Oic]ELMNS-NH2) | 55% | – | – | – | – |
| CC(C)C[C@H](NC(=O)CNC(=O)[C@H](CCCCN)NC(=O)CN)C(=O)N1Cc2ccccc2C[C@H]1C(=O)N1CC2CCCCC2[C@H]1C(=O)N[C@@H](Cc1ccccc1)C(=O)N[C@@H](CCCCN)C(=O)N1Cc2ccccc2C[C@H]1C(=O)N1CC2CCCCC2[C@H]1C(=O)N[C@@H](CCCCN)C(=O)N[C@@H](Cc1ccccc1)C(=O)N1Cc2ccccc2C[C@H]1C(=O)N1CC2CCCCC2[C@H]1C(=O)N[C@@H](Cc1ccccc1)C(=O)N[C@@H](CCCCN)C(=O)N1Cc2ccccc2C[C@H]1C(=O)N1CC2CCCCC2[C@H]1C(=O)N[C@@H](CCCCN)C(=O)N[C@@H](Cc1ccccc1)C(=O)N1Cc2ccccc2C[C@H]1C(=O)N1CC2CCCCC2[C@H]1C(=O)N[C@@H](Cc1ccccc1)C(=O)N[C@@H](CCCCN)C(=O)N1Cc2ccccc2C[C@H]1C(=O)N1CC2CCCCC2[C@H]1C(=O)N[C@@H](Cc1ccccc1)C(=O)N[C@@H](CCCCN)C(=O)N[C@@H](CCCNC(=N)N)C(N)=O (some centres undefined) (H-GKGL[Tic][Pro(3ξ,4ξ-(CH2)4)]FK[Tic][Pro(3ξ,4ξ-(CH2)4)]KF[Tic][Pro(3ξ,4ξ-(CH2)4)]FK[Tic][Pro(3ξ,4ξ-(CH2)4)]KF[Tic][Pro(3ξ,4ξ-(CH2)4)]FK[Tic][Pro(3ξ,4ξ-(CH2)4)]FKR-NH2) | 100% | – | – | – | – |
| CC(=O)NCC(=O)N[C@@H](Cc1ccccc1)C(=O)N1Cc2ccccc2C[C@H]1C(=O)N1[C@H](C(=O)NCC(=O)N[C@H](CCCCN)C(=O)N2Cc3ccccc3C[C@H]2C(=O)N2[C@H](C(=O)NCC(=O)N[C@@H](Cc3ccccc3)C(=O)N3Cc4ccccc4C[C@H]3C(=O)N3[C@H](C(=O)NCC(=O)N[C@H](CCCCN)C(=O)N4Cc5ccccc5C[C@H]4C(=O)N[C@@H](CCCCN)C(=O)N[C@@H](CCCCN)C(=O)N[C@@H](CCCCN)C(=O)N[C@@H](CCCCN)C(N)=O)C[C@@H]4CCCC[C@@H]43)C[C@@H]3CCCC[C@@H]32)C[C@@H]2CCCC[C@@H]21 (Ac-GF[Tic][Oic]G[dK][Tic][Oic]GF[Tic][Oic]G[dK][Tic]KKKK-NH2) | – | 10 µM (≈ 24.4 µg/mL) | 10 µM (≈ 24.4 µg/mL) | 10 µM (≈ 24.4 µg/mL) | – |
| CSCC[C@H](NC(=O)[C@H](CC(C)C)NC(=O)[C@H](CCC(=O)O)NC(=O)[C@@H]1c2ccccc2CN1C(=O)[C@@H]1Cc2ccccc2CN1C(=O)[C@H](Cc1ccccc1)NC(=O)CCNC(=O)[C@@H]1c2ccccc2CN1C(=O)[C@@H]1Cc2ccccc2CN1C(=O)[C@H](CCCCN)NC(=O)CCNC(=O)[C@@H]1c2ccccc2CN1C(=O)[C@@H]1Cc2ccccc2CN1C(=O)[C@H](Cc1ccccc1)NC(=O)CCNC(=O)[C@@H]1c2ccccc2CN1C(=O)[C@@H]1Cc2ccccc2CN1C(=O)[C@H](CCCCN)NC(=O)CCNC(=O)CCNC(=O)CNC(=O)[C@H](CC(C)C)NC(=O)CNC(=O)[C@H](CCCCN)NC(=O)CNC(=O)[C@@H](N)CCC(=O)O)C(=O)N[C@@H](CC(N)=O)C(=O)N[C@@H](CO)C(N)=O (H-EGKGLG[βAla][βAla]K[Tic][Pro(3,4-benzo)][βAla]F[Tic][Pro(3,4-benzo)][βAla]K[Tic][Pro(3,4-benzo)][βAla]F[Tic][Pro(3,4-benzo)]ELMNS-NH2) | 27% | – | – | – | – |
| CC(C)C[C@H](NC(=O)[C@@H]1C2CCCCC2CN1C(=O)[C@@H]1Cc2ccccc2CN1C(=O)CNC(=O)[C@H](CCCCN)NC(=O)CNC(=O)[C@@H]1C2CCCCC2CN1C(=O)[C@@H]1Cc2ccccc2CN1C(=O)[C@H](CO)NC(=O)[C@H](CC(C)C)NC(=O)[C@@H](N)CCC(=O)O)C(=O)N[C@@H](CCCCN)C(=O)N[C@@H](CCC(=O)O)C(=O)N[C@@H](CO)C(N)=O (some centres undefined) (H-ELS[Tic][Pro(3ξ,4ξ-(CH2)4)]GKG[Tic][Pro(3ξ,4ξ-(CH2)4)]LKES-NH2) | 23% | – | – | – | – |
| CC(C)C[C@@H](NC(=O)CNC(=O)[C@H](CCCCN)NC(=O)CN)C(=O)N1Cc2ccccc2C[C@H]1C(=O)N1CC2CCCCC2[C@H]1C(=O)N[C@@H](Cc1ccccc1)C(=O)N[C@@H](CCCN)C(=O)N1Cc2ccccc2C[C@H]1C(=O)N1CC2CCCCC2[C@H]1C(=O)N[C@H](CCCCN)C(=O)N[C@@H](Cc1ccccc1)C(=O)N1Cc2ccccc2C[C@H]1C(=O)N1CC2CCCCC2[C@H]1C(=O)N[C@@H](Cc1ccccc1)C(=O)N[C@@H](CCCCN)C(=O)N1Cc2ccccc2C[C@H]1C(=O)N1CC2CCCCC2[C@H]1C(=O)N[C@@H](CCCCN)C(=O)N[C@@H](Cc1ccccc1)C(=O)N1Cc2ccccc2C[C@H]1C(=O)N1CC2CCCCC2[C@H]1C(=O)N[C@H](Cc1ccccc1)C(=O)N[C@@H](CCCCN)C(=O)N1Cc2ccccc2C[C@H]1C(=O)N1CC2CCCCC2[C@H]1C(=O)N[C@@H](Cc1ccccc1)C(=O)N[C@@H](CCCCN)C(=O)N[C@@H](CCCNC(=N)N)C(N)=O (some centres undefined) | – | – | – | – | inactive |
| CC(=O)NCC(=O)N[C@@H](Cc1ccc([N+](=O)[O-])cc1)C(=O)N1Cc2ccccc2C[C@H]1C(=O)N1CC2CCCCC2[C@H]1C(=O)NCC(=O)N[C@@H](CCCCN)C(=O)N1Cc2ccccc2C[C@H]1C(=O)N1CC2CCCCC2[C@H]1C(=O)NCC(=O)N[C@@H](Cc1ccc([N+](=O)[O-])cc1)C(=O)N1Cc2ccccc2C[C@H]1C(=O)N1CC2CCCCC2[C@H]1C(=O)NCC(=O)N[C@@H](CCCCN)C(=O)N1Cc2ccccc2C[C@H]1C(=O)N[C@@H](CCCCN)C(=O)N[C@@H](CCCCN)C(=O)N[C@@H](CCCCN)C(=O)N[C@@H](CCCCN)C(N)=O (some centres undefined) (Ac-G[Phe(4-NO2)][Tic][Pro(3ξ,4ξ-(CH2)4)]GK[Tic][Pro(3ξ,4ξ-(CH2)4)]G[Phe(4-NO2)][Tic][Pro(3ξ,4ξ-(CH2)4)]GK[Tic]KKKK-NH2) | – | 10 µM (≈ 25.3 µg/mL) | 10 µM (≈ 25.3 µg/mL) | 30 µM (≈ 75.9 µg/mL) | – |
| CC(=O)NCC(=O)N[C@H](Cc1ccccc1)C(=O)N1Cc2ccccc2C[C@H]1C(=O)N1[C@H](C(=O)NCC(=O)N[C@@H](CCCCN)C(=O)N2Cc3ccccc3C[C@H]2C(=O)N2[C@H](C(=O)NCC(=O)N[C@H](Cc3ccccc3)C(=O)N3Cc4ccccc4C[C@H]3C(=O)N3[C@H](C(=O)NCC(=O)N[C@@H](CCCCN)C(=O)N4Cc5ccccc5C[C@H]4C(=O)N[C@@H](CCCCN)C(=O)N[C@@H](CCCCN)C(=O)N[C@@H](CCCCN)C(=O)N[C@@H](CCCCN)C(N)=O)C[C@@H]4CCCC[C@@H]43)C[C@@H]3CCCC[C@@H]32)C[C@@H]2CCCC[C@@H]21 (Ac-G[dF][Tic][Oic]GK[Tic][Oic]G[dF][Tic][Oic]GK[Tic]KKKK-NH2) | – | 3 µM (≈ 7.32 µg/mL) | 10 µM (≈ 24.4 µg/mL) | 10 µM (≈ 24.4 µg/mL) | – |
